Data: ChEMBL document CHEMBL5252610, “Synthesis, Characterization, and Bioactivity of the Lichen Pigments Pulvinamide, Rhizocarpic Acid, and Epanorin and Congeners” (J Nat Prod, 2023)
Values after ≈ are worked out from the molar mass of the structure shown.

Legend:
[1] = Anticancer activity against mouse NS-1 cells assessed as reduction in cell viability incubated for 96 hrs by resazurin based assay; format: functional
[2] = Cytotoxicity against human NFF cells assessed as reduction in cell viability incubated for 96 hrs by resazurin based assay; format: toxicity; conditions: read-out: MIC
[3] = system: Bacillus subtilis; assay: Antibacterial activity against Bacillus subtilis ATCC 6633 assessed as bacterial growth inhibition incubated for 48 hrs by resazurin microtiter assay; format: functional
[4] = system: Staphylococcus aureus; assay: Antibacterial activity against Staphylococcus aureus ATCC 25923 assessed as bacterial growth inhibition incubated for 48 hrs by resazurin microtiter assay; format: functional
[5] = system: Candida albicans; assay: Antifungal activity against Candida albicans ATCC 10231 assessed as bacterial growth inhibition incubated for 48 hrs by bromocresol green based broth dilution assay; format: functional
[6] = system: Saccharomyces cerevisiae; assay: Antifungal activity against Saccharomyces cerevisiae ATCC 9763 assessed as bacterial growth inhibition incubated for 48 hrs by bromocresol green based broth dilution assay; format: functional
[7] = system: Giardia intestinalis; assay: Antiparasitic activity against Giardia intestinalis 713 assessed as bacterial growth inhibition incubated for 96 hrs by microtiter assay; format: functional; conditions: Giardia duodenalis
[8] = system: Spodoptera littoralis; assay: Insecticidal activity against Spodoptera littoralis neonate larvae assessed as reduction in weight gain of larvae; format: functional
[9] = system: Spodoptera littoralis; assay: Insecticidal activity against Spodoptera littoralis assessed as reduction in number of pupae in adulthood (Rvb=90%); format: functional; set-up: scale not given: the % may be the effect or the level left

Structure (SMILES) | MIC [1] [µg/mL] | MIC [3] [µg/mL] | MIC [4] [µg/mL] | MIC [5] [µg/mL] | MIC [6] [µg/mL] | MIC [7] [µg/mL] | MCC at 96 h [2] [µg/mL] | ED50 [8] [µmol/g] | Activity [9] [%]
CSC[S+]([O-])C[C@H](CO)NC(=O)/C=C/c1c(C)[nH]c(=O)[nH]c1=O (stereo partly drawn) | 0.6 (≈ 1.66 µM) | – | – | – | – | – | 0.6 | – | –
COC(=O)[C@H](Cc1ccccc1)NC(=O)/C(=C1/OC(=O)C(c2ccccc2)=C1O)c1ccccc1 | 3.1 (≈ 6.6 µM) | 50 (≈ 106 µM) | > 100 | > 200 | > 200 | 100 (≈ 213 µM) | > 100 | 71 | 25
NC(=O)/C(=C1/OC(=O)C(c2ccccc2)=C1O)c1ccccc1 | – | 50 (≈ 163 µM) | > 100 | 200 (≈ 651 µM) | 100 (≈ 325 µM) | – | – | – | –
COC(=O)[C@@H](Cc1ccccc1)NC(=O)/C(=C1/OC(=O)C(c2ccccc2)=C1O)c1ccccc1 | 50 (≈ 106 µM) | 50 (≈ 106 µM) | 50 (≈ 106 µM) | > 200 | > 200 | 25 (≈ 53.2 µM) | > 100 | – | –
CN(CC[C@H](N)CC(=O)N[C@H]1C=C[C@H](n2ccc(N)nc2=O)O[C@@H]1C(=O)O)C(=N)N.Cl | – | – | – | > 200 | 3.1 | – | – | – | –
Cc1ncc([N+](=O)[O-])n1CCO [METRONIDAZOLE] | – | – | – | – | – | 0.3 (≈ 1.75 µM) | – | – | –
O=C1O/C(=C(/C(=O)O)c2ccccc2)C(O)=C1c1ccccc1 [PULVIC ACID] | – | > 100 | > 100 | > 100 | > 100 | – | – | – | –
O=C1OC2=C(c3ccccc3)C(=O)OC2=C1c1ccccc1 [PULVINIC DILACTONE] | – | > 100 | > 100 | > 100 | > 100 | – | – | – | –
CN(C)[C@@H]1C(O)=C(C(N)=O)C(=O)[C@@]2(O)C(O)=C3C(=O)c4c(O)cccc4[C@@](C)(O)[C@H]3C[C@@H]12 [TETRACYCLINE] | – | 6.3 (≈ 14.2 µM) | 12.5 (≈ 28.1 µM) | – | – | – | – | – | –

Continued, in another order:

MIC [1] [µg/mL] | MIC [3] [µg/mL] | MIC [4] [µg/mL] | MIC [5] [µg/mL] | MIC [6] [µg/mL] | MIC [7] [µg/mL] | Structure (SMILES) | MCC at 96 h [2] [µg/mL] | ED50 [8] [µmol/g] | Activity [9] [%]
25 (≈ 57.4 µM) | > 100 | > 100 | > 200 | > 200 | 50 (≈ 115 µM) | COC(=O)[C@H](CC(C)C)NC(=O)/C(=C1/OC(=O)C(c2ccccc2)=C1O)c1ccccc1 | > 100 | – | –
> 100 | 100 (≈ 220 µM) | > 100 | > 200 | > 200 | > 100 | O=C1O/C(=C(/C(=O)N[C@@H](Cc2ccccc2)C(=O)O)c2ccccc2)C(O)=C1c1ccccc1 | > 100 | – | –
> 100 | > 100 | > 100 | > 200 | > 200 | > 100 | CC(C)C[C@H](NC(=O)/C(=C1/OC(=O)C(c2ccccc2)=C1O)c1ccccc1)C(=O)O | > 100 | – | –
50 (≈ 115 µM) | 50 (≈ 115 µM) | 100 (≈ 230 µM) | > 200 | > 200 | 25 (≈ 57.4 µM) | COC(=O)[C@@H](CC(C)C)NC(=O)/C(=C1/OC(=O)C(c2ccccc2)=C1O)c1ccccc1 | > 100 | – | –
